Reference: publication PMC9481533, “Structure-based discovery of small molecules that disaggregate Alzheimer’s disease tissue derived tau fibrils in vitro” (Nature Communications, 2022)
Where “and” joins values, the source holds several entries; their conditions need not be identical. Identical values can stand only once.

Target: crude AD brain extracts (tau seeds) in HEK293T tau biosensor cells (Homo sapiens, UniProt P10636)
Assay: Tau biosensor cell seeding assay, screen with crude AD brain extracts
Assay type: cell-based
Conditions: 10 μM inhibitor on cells, seeds pre-incubated 16–18 h at 4 °C, individual replicates (n=3), DMSO control 10734.9/12808.5/11145.3
From the text: From the in silico screen, compounds were ranked and 46 were selected for further experimental validation based on the total binding energy of the ligand/fibril complex. The experimental assessment consisted of direct measures of fibril disassembly (Fig. 2d, e and Supplementary Table 3) and assessment of the seeding capability of the products of disassembled AD tau fibrils in a biosensor cell assay. Disaggregating molecules that produce active seeds are undesirable for therapy and are excluded from further study. HEK293T cells expressing CFP- or YFP-fused tau are transduced with exogenous AD tau fibrils. Externally applied AD-tau fibrils then induce the aggregation of the endogenous fluorescent tau, resulting in the formation of FRET-positive intracellular aggregates, visible as bright puncta by fluorescence microscopy (Fig. 2f). Automated image analysis of visible puncta provides an objective quantification of seeded aggregation. […] Although biosensors may be limited in reporting structural characteristics of fibril progeny, they offer exquisitely sensitive measures of tau seeding activity—the ability for fibrils to recruit monomeric protein into fibrillar form, which is thought to be the mechanism for tau spreading in AD.
Human autopsy samples were obtained by the Mayo Clinic Brain Bank and UCLA Pathology Department according to HHS regulations from patients consenting to autopsy. Samples were provided to the researchers of this study as anonymized tissues. For purification of paired helical filaments (PHFs) and straight filaments (SFs) from AD brain tissue, extractions were performed according to the previously published protocol without any modifications. […] For biosensor seeding assays with crude AD brain extracts, fresh-frozen tissue from neuropathologically confirmed AD cases was thawed and cut into a 0.2–0.3 g sections. Tissue was manually homogenized in a 15 ml disposable tube in 1 ml of 50 mM Tris, pH 7.4 with 150 mM NaCl, and then aliquoted to PCR tubes and sonicated in a cuphorn bath for 120 min under 30% power at 4 °C in a recirculating ice water bath, according to reference.
HEK293T cell lines stably expressing tau-K18 P301S-eYFP were obtained from Marc Diamond[25] and used without further characterization or authentication. […] Inhibitors were dissolved in DMSO. […] After twenty minutes, 10 µl of fibrils were added to 90 µl of tau biosensor cells. The number of seeded aggregates was determined by imaging the entire well of a 96-well plate in triplicate using a Celigo Image Cytometer (Nexcelom) in the YFP channel. The number of aggregates in a given image was determined using an ImageJ 2.3.0[50] script, which subtracts the background fluorescence from unseeded cells, and then counts the number of aggregates as peaks with fluorescence above the background using the built-in Particle Analyzer. The number of aggregates was normalized to the confluence of each well, and dose-response plots were generated by calculating the average and standard deviations from triplicate measurements.

Chain of crude AD brain extracts (tau seeds) in HEK293T tau biosensor cells (P10636 623-695 limits assumed): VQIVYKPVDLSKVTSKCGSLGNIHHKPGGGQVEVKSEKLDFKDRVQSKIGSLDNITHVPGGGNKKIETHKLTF

Oc1c(Cl)cc(Cl)c2cccnc12 [5,7-dichloro-8-quinolinol AKA Chloroxine, 5,7-dichloro-8-quinolinol]
Number of seeded aggregates in tau biosensor cells (normalized to confluence), Fig. 2e: 8929.14 and 10028.6 and 22099.9

Cn1c(=O)n(C)c2cc3c(cc21)nc1c2cccc4cccc(c(=O)n31)c42 [CNS-1, 10,12-dimethyl-10,12-dihydro-7H,11H-benzo[de]imidazo[4',5':5,6]benzimidazo[2,1-a]isoquinoline-7,11-dione]
Number of seeded aggregates in tau biosensor cells (normalized to confluence), Fig. 2e (listed as 7850915): 11080.3 and 15413.1 and 17191

CC1=C(C(=O)Nc2ccccn2)C(c2ccc(F)cc2)C2=C(CCCC2=O)N1 (stereo not drawn) [CNS-4, 4-(4-fluorophenyl)-2-methyl-5-oxo-N-2-pyridinyl-1,4,5,6,7,8-hexahydro-3-quinolinecarboxamide]
Number of seeded aggregates in tau biosensor cells (normalized to confluence), Fig. 2e (listed as 6317572): 8103.61 and 7551.45 and 17671.3

COc1cccc(C2C(C(=O)Nc3ccccn3)=C(C)NC3=C2C(=O)CCC3)c1 (stereo not drawn) [CNS-5, 4-(3-methoxyphenyl)-2-methyl-5-oxo-N-2-pyridinyl-1,4,5,6,7,8-hexahydro-3-quinolinecarboxamide]
Number of seeded aggregates in tau biosensor cells (normalized to confluence), Fig. 2e (listed as 6327117): 5790.63 and 5091.84 and 10386.8

CC1=C(C(=O)Nc2cccc(C)n2)C(c2ccccc2C)C2=C(CCCC2=O)N1 (stereo not drawn) [CNS-6, 2-methyl-4-(2-methylphenyl)-N-(6-methyl-2-pyridinyl)-5-oxo-1,4,5,6,7,8-hexahydro-3-quinolinecarboxamide]
Number of seeded aggregates in tau biosensor cells (normalized to confluence), Fig. 2e (listed as 6343767): 6727.54 and 6497.71 and 11400

Cc1ccc(S(=O)(=O)N(C(F)F)C(C)(C)C)cc1 [CNS-9, N-(tert-butyl)-N-(difluoromethyl)-4-methylbenzenesulfonamide]
Number of seeded aggregates in tau biosensor cells (normalized to confluence), Fig. 2e (listed as 6933498): 6268.06 and 9513.63 and 13394.2

O=C(c1cc2cc(Br)ccc2oc1=O)N1CCc2ccccc2C1 [CNS-10, 6-bromo-3-(3,4-dihydro-2(1H)-isoquinolinylcarbonyl)-2H-chromen-2-one]
Number of seeded aggregates in tau biosensor cells (normalized to confluence), Fig. 2e (listed as 6991358): 4869.84 and 6105.12 and 9256.09

CC(=O)Nc1cc(-c2nn(C)c(=O)c3ccccc23)ccc1N1CCCCC1 [CNS-19, N-[5-(3-methyl-4-oxo-3,4-dihydro-1-phthalazinyl)-2-(1-piperidinyl)phenyl]acetamide]
Number of seeded aggregates in tau biosensor cells (normalized to confluence), Fig. 2e (listed as 7520752): 9057.73 and 5534.89 and 16287.3

N#Cc1c2c(n3cc4ccccc4cc13)C(=O)c1ccccc1C2=O [CNS-20, 5,14-dioxo-5,14-dihydrobenzo[5,6]indolo[1,2-b]isoquinoline-13-carbonitrile]
Number of seeded aggregates in tau biosensor cells (normalized to confluence), Fig. 2e (listed as 7663820): 40070.2 and 48758.2 and 61897.7

Cc1ccc(N2C(=O)CC(n3cnc4ccccc43)C2=O)c(C)c1 (stereo not drawn) [CNS-22, 3-(1H-benzimidazol-1-yl)-1-(2,4-dimethylphenyl)-2,5-pyrrolidinedione]
Number of seeded aggregates in tau biosensor cells (normalized to confluence), Fig. 2e (listed as 7729218): 7077.98 and 8551.58 and 10715.2

Cc1cccc(-c2noc(-c3ccccc3C(=O)NCc3cccnc3)n2)c1 [CNS-24, 2-[3-(3-methylphenyl)-1,2,4-oxadiazol-5-yl]-N-(3-pyridinylmethyl)benzamide]
Number of seeded aggregates in tau biosensor cells (normalized to confluence), Fig. 2e (listed as 9002758): 4798.71 and 2194.24 and 9734.93

COc1ccccc1NC(=O)c1cc2c(ccc3ccccc32)oc1=O [CNS-25, N-(2-methoxyphenyl)-3-oxo-3H-benzo[f]chromene-2-carboxamide]
Number of seeded aggregates in tau biosensor cells (normalized to confluence), Fig. 2e (listed as 5876327): 13235.2 and 9679.79 and 19134.9

CO[C@H]1C[C@@H]2CC[C@@H](C)[C@@](O)(O2)C(=O)C(=O)N2CCCC[C@H]2C(=O)O[C@H]([C@H](C)C[C@@H]2CC[C@@H](OCCO)[C@H](OC)C2)CC(=O)[C@H](C)/C=C(\C)[C@@H](O)[C@@H](OC)C(=O)[C@H](C)C[C@H](C)/C=C/C=C/C=C/1C [FDA-A-7, Everolimus]
Number of seeded aggregates in tau biosensor cells (normalized to confluence), Fig. 2e: 3758.68 and 4378.2 and 11639.6

C[C@]12C=CC(=O)N[C@@H]1CC[C@@H]1[C@@H]2CC[C@]2(C)[C@@H](C(=O)Nc3cc(C(F)(F)F)ccc3C(F)(F)F)CC[C@@H]12 [FDA-A-9, Dutasteride]
Number of seeded aggregates in tau biosensor cells (normalized to confluence), Fig. 2e: 6197.61 and 4567.33 and 9824.67

COc1cc([C@@H]2c3cc4c(cc3[C@@H](O[C@@H]3O[C@@H]5CO[C@@H](c6cccs6)O[C@H]5[C@H](O)[C@H]3O)[C@H]3COC(=O)[C@H]23)OCO4)cc(OC)c1O [FDA-A-11, Teniposide]
Number of seeded aggregates in tau biosensor cells (normalized to confluence), Fig. 2e: 28315 and 23778 and 42223.8

C/C=C(/C)C(=O)O[C@H]1C(C)=C[C@]23C(=O)[C@@H](C=C(CO)[C@@H](O)[C@]12O)[C@H]1[C@@H](C[C@H]3C)C1(C)C [FDA-A-13, Ingenol mebutate]
Number of seeded aggregates in tau biosensor cells (normalized to confluence), Fig. 2e (listed as ingenol-3-angelate): 10027.6 and 8367.28 and 13011.7

CC1=NN(c2ccc(C)c(C)c2)C(=O)/C1=N\Nc1cccc(-c2cccc(C(=O)O)c2)c1O [FDA-A-15, Eltrombopag]
Number of seeded aggregates in tau biosensor cells (normalized to confluence), Fig. 2e: 3758.35 and 8279.6 and 8614.09

Cc1nc2c([nH]1)-c1ccccc1N(C(=O)c1ccc(NC(=O)c3ccccc3-c3ccccc3)cc1)CC2 [FDA-A-16, Conivaptan]
Number of seeded aggregates in tau biosensor cells (normalized to confluence), Fig. 2e: 15272 and 13297.5 and 27692

Cc1ccc(-n2nccn2)c(C(=O)N2CCN(c3nc4cc(Cl)ccc4o3)CC[C@H]2C)c1 [FDA-A-20, Suvorexant]
Number of seeded aggregates in tau biosensor cells (normalized to confluence), Fig. 2e: 10609.4 and 12014.6 and 14701.5

CN1C[C@H](C(=O)N[C@]2(C)O[C@@]3(O)[C@@H]4CCCN4C(=O)[C@H](Cc4ccccc4)N3C2=O)C[C@@H]2c3cccc4[nH]cc(c34)C[C@H]21 [FDA-A-23, Dihydroergotamine]
Number of seeded aggregates in tau biosensor cells (normalized to confluence), Fig. 2e (listed as dihydroergotamine mesylate): 6873.71 and 6659.65 and 11949.1

COc1ccc2c(c1)C(=O)N(CCc1ccc(S(=O)(=O)NC(=O)NC3CCCCC3)cc1)C(=O)C2(C)C [FDA-R-2, Gliquidone]
Number of seeded aggregates in tau biosensor cells (normalized to confluence), Fig. 2e: 7523.16 and 6557.51 and 13245

CNS(=O)(=O)CCc1ccc2[nH]cc(C3CCN(C)CC3)c2c1 [FDA-R-4, Naratriptan]
Number of seeded aggregates in tau biosensor cells (normalized to confluence), Fig. 2e: 8578.9 and 6012.3 and 15427

CNC(=C[N+](=O)[O-])NCCSCc1csc(CN(C)C)n1 [FDA-R-7, Nizatidine]
Number of seeded aggregates in tau biosensor cells (normalized to confluence), Fig. 2e: 6548.12 and 9220.9 and 15017.2

CC(=O)c1ccc(S(=O)(=O)NC(=O)NC2CCCCC2)cc1 [FDA-R-8, Acetohexamide]
Number of seeded aggregates in tau biosensor cells (normalized to confluence), Fig. 2e (listed as acetohexamide aka Dymelor): 9289.39 and 6525.19 and 13238.7
